This is an account of results in EP1222194B1, “7-ACYLAMINO-3-HETEROARYLTHIO-3-CEPHEM CARBOXYLIC ACID ANTIBIOTICS AND PRODRUGS THEREOF” (priority 1999, dated 2001).

Series [1] is described as follows: In vitro stability of compounds in rat serum. To be noted: for degraded at 1 h: % loss after 60 min exposure to rat serum as determined by HPLC, 37 °C; for stability in rat serum (statement in words): compared with other 7-acylamino-3-heteroarylthio-3-cephem carboxylic acids. The class given is in vitro ADME. As to the method:
In general, compounds from the class of 7-acylamino-3-heteroarylthio-3-cephem carboxylic acids have higher chemical reactivity and lower stability towards chemical or enzymatic decomposition than most typical cephalosporins. […] Results shown in Table 2 represent percentage loss of the initial amount of cephalosporin compound upon 60 min incubation in rat serum.
Procedure for measuring degree of degradation of cephalosporin compounds in rat serum was as follows:
Fresh control rat serum (heparinized and stored frozen) is preincubated at 37 °C for 15 min in a shaking water bath. pH is measured using test strips. 25 µL of a 2 mg/mL solution cephalosporin compound (in water) of is then added to each matrix to make 1000 µL. Solutions were incubated at 37 °C. 100ul of solution was taken out at time = 0, 15, 30, and 60 min post dose and added 200 µL 4% trichloroacetic acid, vortexed, and centrifuged for 10 min at 14,000 rpm in an Eppendorfmicrocentrifuge. 25 µL of each supernatant was injected onto HPLC. Experiment was repeated using 25 µL of a 0.2 mg/mL cephalosporin compound. Degradation is measured as the percentage of HPLC peak area at time t relative to peak area at time 0.
HPLC conditions: Beckman Ultrasphere C18 column. 5u. 4.6mm x 25cm. 1 mL/min of 95% 0.1 M ammonium acetate, pH 6, 5% ACN going to 75% buffer/organic over 20min. UV monitored at 254 and 280 nm.

A short description of series [2]: Serum binding determination by ultrafiltration and HPLC. In kind it is in vitro ADME. Conditions: human, serum, % of compound bound to serum as determined by HPLC. As to the method: The more accurate measurement of binding of selected cephalosporin compounds was performed using HPLC as described below. […] Serum is placed in a shaking water bath preheated to 37 ± 2 °C for 5 to 10 minutes to heat serum to 37 °C. Serum pH is measured and recorded, while serum is 37 °C using pH paper. Measurements are taken twice, 3 minutes apart. […] After blowing for several minutes, serum is heated to 37 °C and measurements are taken twice, 3 minutes apart using pH paper to determine the pH. Store at 4 °C. The serum is stable for 7 days. Always check the pH before each use. • 2. Before any centrifugation, the centrifuge temperature must be adjusted to 25 ± 2 °C. Preheat the centrifuge by spinning for 45 minutes at the same speed to be used in the assay (1900 g) with two tubes of water in the rotor and the temperature set to 25 °C. When the centrifuge stops immediately check the temperature of the tubes of water with a calibrated thermometer. The temperature of the tubes of water must be 25 ± 2 °C. […] Continue spinning and measuring the temperature and adjusting the setting until the temperature is 25 ± 2 °C. • 3. Prepare blank ultrafiltrate by pipetting blank pH 7.4 serum into an Amicon Centrifree Micropartition devices, centrifuge: fixed angle rotor, 1900 g, 25 °C for 20 minutes. Heat ultrafiltrate in a shaking water bath preheated to 37 °C. Measure ultrafiltrate pH and adjust to the pH of the serum (7.4 ± 0.2). • 4. Pipette 190 ul of blank ultrafiltrate into a set of labeled 1.7 mL polypropylene microfuge tubes for 3 of each level. Pipette 10 µL of the appropriate standard stock 50, 200, 1000 µg/mL to make standards 2.5, 10, and 50 µg/mL respectively. Vortex each tube well. One set of the standard samples are mixed 1:1 with 0.2 M acetic acid and injected onto the HPLC (MSTD). These samples are the membrane standards and will be used to compare to the other standards. Pipette 190 ul of ultrafiltrate and spike with 10 ul of whatever solution (e.g. water) the standards are prepared in to make the zero standard. • 5. Pipette 475 µL of blank heated pH 7.4 serum into a set of labeled 1.7 mL polypropylene microfuge tubes for 2 of each (Serum A and Serum B). Pipette 25 µL of the 1000 µg/mL standard stock into each tube, vortex each tube well to make serum standard 50 µg/mL. Remove 100 µL of serum and deproteinate with 200 µL 4% TCA while vortexing to make serum time 0 (serum 50, T0). Place serum tubes in a shaking water bath at 37 °C for 10 minutes. Pipet 100 µL of serum out and deproteinate with 200 µL 4% TCA, to make serum time 10 min (serum 50, T10). Pipet 200 ul serum standard 50 µg/mL into an ultrafiltration device, which is not treated with TCA, to determine free drug in samples (Rat Serum 50). • 6. Transfer serum and standard samples to labeled Amicon Centrifree Micropartition filters, and centrifuge: 1900 g, 25 °C for 10 minutes. The extracted serum samples (T0 and T 10) are spun down and supernatant is loaded into HPLC vials. • 7. 100 µL of ultrafiltrate sample and 100 µL of 0.2 M acetic acid were mixed together to stabilize the compound in ultrafiltrate. • 8. Transfer entire stabilized ultrafiltrate solution to a labeled autoinjector HPLC vial cap with Teflon septa, and inject on HPLC.
Peak height or area is used in a weighted linear regression.
High levels of binding to human serum proteins limits the concentration of compound available for antibacterial activity in the body.

The test system of series [3] is E. faecalis ATCC 29212. Briefly: Broth microdilution MIC (NCCLS). In kind it is cell-based. Conditions: Enterococcus faecalis, ATCC29212, Mueller-Hinton Broth, 24 h at 35 °C. As to the method: (§1) Compounds were evaluated for antimicrobial activity against a panel of bacterial strains using a broth microdilution assay performed as recommended by the NCCLS (1). The minimum inhibitory concentration (MIC) was defined as the lowest concentration of drug which prevented the growth of the bacteria. The following 16 organisms constituted the primary panel of evaluation:
(§2) For this primary panel, the assay was performed in Mueller-Hinton Broth (MHB) with a final bacterial inoculum of 5 x 10^5 CFU/mL (from an early-log phase culture) and a final volume of 100 µL. Control drugs, including imipenem, vancomycin, Penicillin G, dicloxacillin (vs. MSSA ATCC29213 only), and new compounds were prepared at a concentration equivalent to 2-fold the desired final concentration. Dilution of compounds were prepared directly in the plates by serial 2-fold dilution using a multichannel pipette. Positive and negative growth control were included in each plate.
(§3) The bacterial inocula were prepared as follows. For each strain one isolated colony was used to inoculate a volume of 8 mL of Mueller-Hinton broth and these cultures were incubated overnight (20h) at 35 °C in a shaking incubator. At the exception of Enterococcus strains, culture were then diluted 1:10 and allowed to grow for an additional one hour at 35 °C in a shaking incubator. The inocula were prepared by diluting the early log-phase (1h) cultures 1:1000 with fresh Mueller-Hinton broth. E. faecium and E. faecalis were prepared by diluting overnight cultures 1:333 and 1:666, respectively, with fresh Mueller-Hinton broth . A volume of 50 µL of the inocula was added to each well. […] The exact inocula were determined by applying […] of 10-fold serial dilution of the bacterial suspensions on TSA. After overnight incubation at 35 °C, colony forming units were manually counted.
(§4) Microtiter plates were incubated during 24 h at 35 °C and were read using a microtiterplate reader (Molecular Devices) at 650 nm as well as by visual observation using a microtiterplate reading mirror.

Series [4] relates to P. aeruginosa ATCC 27853. Briefly: Broth microdilution MIC (NCCLS). The class given is cell-based. Conditions: Pseudomonas aeruginosa, ATCC27853, Mueller-Hinton Broth, 24 h at 35 °C. As to the method: as §1, §2, §3, §4
A general note: In broth dilution the organism is exposed to a series of concentrations in liquid medium.

The structures appear in SMILES notation. Converted amounts (≈) assume the structure as drawn. Where only a bound is given, the exact number is not on record here.

As usually defined, the fraction unbound is the share of the substance not bound to proteins or other matrix. Read a high fraction unbound as weak binding. The MIC is the least concentration at which growth counts as inhibited. A high value points to a need for much substance.

In turn, `NCCSCc1ncccc1SC1=C(C(=O)O)N2C(=O)[C@@H](NC(=O)/C(=N\O)c3nsc(N)n3)[C@H]2SC1` [Cmpd 2, (7R)-7-[(Z)-2-(5-amino-1,2,4-thiadiazol-3-yl)-2-(hydroxyimino)acetamido]-3-[2-(2-aminoethylthiomethyl)pyrid-3-ylthio]-3-cephem-4-carboxylic acid] gave a degraded at 1 h in series [1] of 2%. Also, the “stability in rat serum (statement in words)” value (“stability in rat serum” for short) in series [1] is given as “improved stability”. For the same compound, the fraction unbound in series [2] is no less than 0.2. Moreover, the MIC is 1 µg/mL (≈ 1.76 µM) in series [3] and greater than 32 µg/mL in series [4].
On the same counts, the results for `NCCSCc1ccncc1SC1=C(C(=O)O)N2C(=O)[C@@H](NC(=O)/C(=N\O)c3nc(N)sc3Cl)[C@H]2SC1` [Cmpd 3, (7R)-7-[(Z)-2-(2-amino-5-chlorothiazol-4-yl)-2-(hydroxyimino)acetamido]-3-[4-(2-aminoethylthiomethyl)pyrid-3-ylthio]-3-cephem-4-carboxylic acid] are 3%, “improved stability”, 0.1, 0.13 µg/mL (≈ 0.216 µM) and 32 µg/mL (≈ 53.1 µM).
`N=C(N)NCCSCc1ncccc1SC1=C(C(=O)O)N2C(=O)[C@@H](NC(=O)/C(=N\O)c3nsc(N)n3)[C@H]2SC1` [Cmpd 2-R, (7R)-7-[(Z)-2-(5-amino-1,2,4-thiadiazol-3-yl)-2-(hydroxyimino)acetamido]-3-[2-(2-guanidinoethylthiomethyl)pyrid-3-ylthio]-3-cephem-4-carboxylic acid] came in with a degraded at 1 h in series [1] of 10%. Moreover, the “stability in rat serum” value in series [1] was “improved stability”. Also, the fraction unbound in series [2] is no less than 0.2. Besides, the MIC in series [3] is 1 µg/mL (≈ 1.64 µM); in series [4], greater than 32 µg/mL.
`NCCSCc1ncccc1SC1=C(C(=O)O)N2C(=O)[C@@H](NC(=O)/C(=N\O)c3nc(N)sc3Cl)[C@H]2SC1` [Cmpd 1, (7R)-7-[(Z)-2-(2-amino-5-chlorothiazol-4-yl)-2-(hydroxyimino)acetamido]-3-[2-(2-aminoethylthiomethyl)pyrid-3-ylthio]-3-cephem-4-carboxylic acid]: the degraded at 1 h in series [1] worked out at 9%. In series [1], the “stability in rat serum” value is on record as “improved stability”. The fraction unbound in series [2] is 0.1. The MIC in series [3] came out at 0.06 µg/mL (≈ 0.0996 µM); in series [4], 32 µg/mL (≈ 53.1 µM).
Taken in the same sequence, the figures for `N=C(N)NCCSCc1ncccc1SC1=C(C(=O)O)N2C(=O)[C@@H](NC(=O)/C(=N\O)c3nc(N)sc3Cl)[C@H]2SC1` [Cmpd 2-S, (7R)-7-[(Z)-2-(2-amino-5-chlorothiazol-4-yl)-2-(hydroxyimino)acetamido]-3-[2-(2-guanidinoethylthiomethyl)pyrid-3-ylthio]-3-cephem-4-carboxylic acid] were 38%, “improved stability”, 0.17, 0.06 µg/mL (≈ 0.0931 µM) and greater than 32 µg/mL.
